# Values joined by “and” are separate entries in the source; they are usually repeats but may differ in a detail not shown here. Identical values can stand only once. Active and inactive are the calls of the source.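 The calls were made as follows: active = fitted AC50 no higher than twice the top valid dose tested for that sample; inconclusive = flat curve between -30 and -70% activity, or poor fit; inactive = the rest.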
# Molecular target: PglD UDP-4-amino-sugar N-acetyltransferase (Campylobacter jejuni)
# Experiment: PglD acetyltransferase inhibitors, dose response, biochemical, DTNB absorbance, dry powder samples, set 5 (AID 743125)
# Conditions: purified PglD, DTNB absorbance 412 nm, CoA release
Structure (SMILES),AC50,further results
Cc1c(C(=O)O)sc2nc(/C=C/c3cccnc3N)[nH]c(=O)c12,,"activity change, negative = inhibition (at 10 µM (top of the series)): inactive"
Cc1c(C(=O)O)sc2nc(/C=C/c3ccccn3)[nH]c(=O)c12,7.09 µM,
Cc1c(C(=O)O)sc2nc(/C=C/c3cccc(N4CCNCC4)c3)[nH]c(=O)c12,,"activity change, negative = inhibition (at 38 µM (top of the series)): inactive"
Cc1c(C(=O)O)sc2nc(/C=C/c3cccc(=O)[nH]3)[nH]c(=O)c12,4.69 µM,
Cc1c(C(=O)O)sc2nc(/C=C/c3cccc(N4CCOCC4)n3)[nH]c(=O)c12,> 20 µM (inactive),
Cc1c(C(=O)O)sc2nc(/C=C/c3ccc4[nH]ccc4n3)[nH]c(=O)c12,7 µM,
Cc1c(C(=O)O)sc2nc(/C=C/c3ccccc3O)[nH]c(=O)c12,24.9 µM,
Cc1c(C(=O)O)sc2nc(/C=C/c3ccc(O)cn3)[nH]c(=O)c12,,"activity change, negative = inhibition (at 1 µM (top of the series)): inactive"

# Now from value to compound, other results behind:
AC50,Structure (SMILES),further results
11.5 µM,COc1cccc(/C=C/c2nc3sc(C(=O)O)c(C)c3c(=O)[nH]2)c1,
> 39 µM (inactive),Cc1c(C(=O)O)sc2nc(/C=C/c3cccc([N+](=O)[O-])c3)[nH]c(=O)c12,
> 39 µM (inactive),Cc1c(C(=O)O)sc2nc(/C=C/c3cccc(OC(F)(F)F)c3)[nH]c(=O)c12,
27.6 µM and 3.61 µM,Cc1c(C(=O)O)sc2nc(/C=C/c3cccc(O)c3)[nH]c(=O)c12,
16.9 µM,Cc1c(C(=O)O)sc2nc(/C=C/c3cccc(N)c3)[nH]c(=O)c12,

# — PubChem BioAssay AID743125 (Broad Institute, 2013)
